Key:
Assay type in all cases: cell-based, human
normal skin fibroblasts [1] = experiment: Elastin immunostaining in 7-day cultures of normal skin fibroblasts; conditions: for deposition of elastin (anti-elastin immunostaining): 50 ng/ml IGF-I, 50 nM aldosterone, alone or together, vs untreated control
Protocol: (§1) Biological effects of aldosterone and spironolactone were tested in cultures of dermal fibroblasts derived from normal skin, stretch-marked skin and dermal scars derived from Caucasian females, of different ages ranging from 30-38 years old. All fibroblasts were originally isolated by allowing them to migrate out of skin explants and then passaged by trypsinization and maintained in alpha-minimum essential medium supplemented with 20 mM Hepes, 1% antibiotics and antimycotics, 1% L-Glutamate and 2% fetal bovine serum (FBS) as previously described Hinek et al. “Impaired elastic-fiber assembly by fibroblasts from patients with either Morquio B disease or infantile GM1-gangliosidosis is linked to deficiency in the 67-kD spliced variant of beta-galactosidase.” Am J Hum Genet. 2000 July; 67(1):23-36 hereby incorporated by reference in its entirety. In all experiments, consecutive passages 3-4 were tested. Cells were densely plated (50×10^5 cells/dish) to reach confluency and then cultured for 7 days in the presence and absence of different concentrations of (10 nM-1 μM) aldosterone, 2 μM spironolactone, alone or in combinations with other reagents, as described in figure legends.
7-day-old cultures of fibroblasts, which produce abundant ECM, were assessed. All cultures were fixed in cold 100% methanol at −20° C. for 30 min, and then incubated for 1 hour with 2 μg/ml of polyclonal antibody to tropoelastin. Cultures were then incubated for an additional hour with appropriate fluorescein-conjugated secondary antibody (GAR-FITC). Nuclei were counterstained with propidium iodide. Morphometric analysis of five separate cultures in each experimental group, immunostained with antibodies recognizing extracellular matrix components, was performed using a computerized video analysis system (Image-Pro Plus software 3.0, Media Cybernetics, Silver Spring, Md.) as described previously in Hinek et al. “Decreased elastin deposition and high proliferation of fibroblasts from Costello syndrome are related to functional deficiency in the 67-kD elastin-binding protein.” Am J Hum Genet. 2000 March; 66(3):859-72 and Hinek and Wilson, “Impaired elastogenesis in Hurler disease: dermatan sulfate accumulation linked to deficiency in elastin-binding protein and elastic fiber assembly.” Am J Pathol. 2000 March; 156(3):925-38 both of which are hereby incorporated by reference in their entireties.

normal skin fibroblasts [2] = experiment: [3H]-valine incorporation into insoluble elastin, normal skin fibroblasts; conditions: for mature, insoluble elastin concentration ([3H]-valine incorporation): 50 ng/ml IGF-I, 50 nM aldosterone, alone or in combination
Protocol: as §1
Quintuplicate, 4 day-old cultures of dermal fibroblasts maintained in the presence and absence of indicated reagents were additionally exposed for the 3 following days to 20 μCi [^3H]-valine. At the end of incubation period, the cell layers were extensively washed with PBS, scraped and boiled in 500 μl of 0.1 N NaOH for 30 minutes, to solubilize all matrix components except elastin. The resulting pellets containing the insoluble elastin were then solubilized by boiling in 200 μl of 5.7 N HCl for 1 hour, and the aliquots were mixed in scintillation fluid and counted. Aliquots taken from each culture were also used for DNA determination, according to Rodems et al., using the DNeasy Tissue System from Qiagen. Final results reflecting amounts of metabolically labeled insoluble elastin in individual cultures were normalized per their DNA content, and expressed as CPM/1 μg DNA.

[3] = test system: skin biopsy explants derived from abdominal dermal scar; experiment: Organ culture of dermal scar explants, Movat's pentachrome stain
Protocol: In order to further test whether aldosterone and spironolactone would penetrate into skin tissue and affect elastogenesis, fragments of normal skin, stretch-marked skin and dermal scars were tested in organ culture system. Skin fragments were cut into multiple 1 mm^2 pieces and placed on top of metal grids immersed in culture medium containing 5% FBS and maintained for 10 days in the presence and absence of and then cultured for 7 days in the presence of 50 nM aldosterone, and 2 μM spironolactone, alone or in combinations, as described in figure legends. The media were changed every second day.
All organ cultures were fixed in 1% buffered formalin and their transversal serial histological sections were stained with Movat's pentachrome as previously described in Hinek et al. “Proteolytic digest derived from bovine Ligamentum Nuchae stimulates deposition of new elastin-enriched matrix in cultures and transplants of human dermal fibroblasts” J Dermatol Sci. September 2005; 39(3):155-66 hereby incorporated by reference in it's entirety. Morphometric analysis was performed as described above. In each analyzed group (three explants from each patient) low-power fields (1 mm^2) of 20 serial sections stained with Movat's pentachrome were analyzed and all structures stained black (elastic fibers) were counted.

[4] = test system: fibroblasts derived from dermal scar tissue; experiment: Elastin immunostaining in 7-day cultures of dermal scar fibroblasts
Protocol: as §1
7-day-old cultures of fibroblasts, which produce abundant ECM, were assessed. All cultures were fixed in cold 100% methanol at −20° C. for 30 min, and then incubated for 1 hour with 2 μg/ml of polyclonal antibody to tropoelastin. Cultures were then incubated for an additional hour with appropriate fluorescein-conjugated secondary antibody (GAR-FITC). Nuclei were counterstained with propidium iodide. Morphometric analysis of five separate cultures in each experimental group, immunostained with antibodies recognizing extracellular matrix components, was performed using a computerized video analysis system (Image-Pro Plus software 3.0, Media Cybernetics, Silver Spring, Md.) as described previously in Hinek et al. “Decreased elastin deposition and high proliferation of fibroblasts from Costello syndrome are related to functional deficiency in the 67-kD elastin-binding protein.” Am J Hum Genet. […]

[5] = test system: fibroblasts derived from dermal scar tissue; experiment: [3H]-valine incorporation into insoluble elastin, dermal scar fibroblasts
Protocol: Biological effects of aldosterone and spironolactone were tested in cultures of dermal fibroblasts derived from normal skin, stretch-marked skin and dermal scars derived from Caucasian females, of different ages ranging from 30-38 years old. All fibroblasts were originally isolated by allowing them to migrate out of skin explants and then passaged by trypsinization and maintained in alpha-minimum essential medium supplemented with 20 mM Hepes, 1% antibiotics and antimycotics, 1% L-Glutamate and 2% fetal bovine serum (FBS) as previously described Hinek et al. “Impaired elastic-fiber assembly by fibroblasts from patients with either Morquio B disease or infantile GM1-gangliosidosis is linked to deficiency in the 67-kD spliced variant of beta-galactosidase.” Am J Hum Genet. 2000 July; 67(1):23-36 hereby incorporated by reference in its entirety. […]
Quintuplicate, 4 day-old cultures of dermal fibroblasts maintained in the presence and absence of indicated reagents were additionally exposed for the 3 following days to 20 μCi [^3H]-valine. […] The resulting pellets containing the insoluble elastin were then solubilized by boiling in 200 μl of 5.7 N HCl for 1 hour, and the aliquots were mixed in scintillation fluid and counted. […] Final results reflecting amounts of metabolically labeled insoluble elastin in individual cultures were normalized per their DNA content, and expressed as CPM/1 μg DNA.

collagen type I mRNA = experiment: Collagen type I mRNA level by one-step RT-PCR in normal skin fibroblasts; conditions: 24 h; 50 nM and 1 μM aldosterone, alone or with 2 μM spironolactone
Protocol: (§2) Fibroblasts were cultured to confluency in medium with 2% FBS and then in serum-free medium for 24 hours. The medium was changed again and cells were incubated for the next 24 hours in the presence and absence of in the presence of 50 nM and 1 μM aldosterone, and 2 μM spironolactone, alone or in combinations, as described in figure legend. At the end of the incubation period total RNA was extracted using the RNeasy Mini Kit, according to manufacturer's instructions. Steady-state levels of elastin mRNA were then analyzed by One-Step RT-PCR analysis. Briefly, 1 μg of total RNA was added to each one step RT-PCR (Qiagen One-Step RT-PCR Kit), and reactions were set up according to manufacturer's instructions in a total volume of 25 μl. The reverse transcription step was performed for elastin, and GAPDH reactions at 50° C. for 30 minutes, followed by 15 minutes at 95° C. The elastin PCR reaction (sense primer: [NT] ID NO: 1), antisense primer: [NT] ID NO: 2); designed to produce a 255 bp product) was performed under the following conditions: 25 cycles at 94° C. denaturation for 20 s, 63° C. annealing for 20 s, 72° C. extension for 1 min; 1 cycle at 72° C. final extension for 10 min. The collagen Type I PCR reaction (sense [NT] ID NO: 3), antisense primer: [NT] […]

elastin mRNA = experiment: Elastin mRNA level by one-step RT-PCR in normal skin fibroblasts; conditions: 24 h; 50 nM and 1 μM aldosterone, alone or with 2 μM spironolactone
Protocol: as §2

[6] = test system: fibroblasts derived from patient with stretch marks; experiment: Elastin immunostaining in 7-day cultures of fibroblasts from a patient with stretch marks; conditions: 50 nM aldosterone alone or with 2 μM spironolactone; vs untreated control or spironolactone only
Protocol: Biological effects of aldosterone and spironolactone were tested in cultures of dermal fibroblasts derived from normal skin, stretch-marked skin and dermal scars derived from Caucasian females, of different ages ranging from 30-38 years old. All fibroblasts were originally isolated by allowing them to migrate out of skin explants and then passaged by trypsinization and maintained in alpha-minimum essential medium supplemented with 20 mM Hepes, 1% antibiotics and antimycotics, 1% L-Glutamate and 2% fetal bovine serum (FBS) as previously described Hinek et al. “Impaired elastic-fiber assembly by fibroblasts from patients with either Morquio B disease or infantile GM1-gangliosidosis is linked to deficiency in the 67-kD spliced variant of beta-galactosidase.” Am J Hum Genet. 2000 July; 67(1):23-36 hereby incorporated by reference in its entirety. In all experiments, consecutive passages 3-4 were tested. Cells were densely plated (50×10^5 cells/dish) to reach confluency and then cultured for 7 days in the presence and absence of different concentrations of (10 nM-1 μM) aldosterone, 2 μM spironolactone, alone or in combinations with other reagents, as described in figure legends. 7-day-old cultures of fibroblasts, which produce abundant ECM, were assessed. […]

[7] = test system: fibroblasts derived from patient with stretch marks; experiment: [3H]-valine incorporation into insoluble elastin, stretch-mark fibroblasts; conditions: 50 nM aldosterone alone or with 2 μM spironolactone
Protocol: Biological effects of aldosterone and spironolactone were tested in cultures of dermal fibroblasts derived from normal skin, stretch-marked skin and dermal scars derived from Caucasian females, of different ages ranging from 30-38 years old. All fibroblasts were originally isolated by allowing them to migrate out of skin explants and then passaged by trypsinization and maintained in alpha-minimum essential medium supplemented with 20 mM Hepes, 1% antibiotics and antimycotics, 1% L-Glutamate and 2% fetal bovine serum (FBS) as previously described Hinek et al. “Impaired elastic-fiber assembly by fibroblasts from patients with either Morquio B disease or infantile GM1-gangliosidosis is linked to deficiency in the 67-kD spliced variant of beta-galactosidase.” Am J Hum Genet. […] In all experiments, consecutive passages 3-4 were tested. […] The resulting pellets containing the insoluble elastin were then solubilized by boiling in 200 μl of 5.7 N HCl for 1 hour, and the aliquots were mixed in scintillation fluid and counted. […] Final results reflecting amounts of metabolically labeled insoluble elastin in individual cultures were normalized per their DNA content, and expressed as CPM/1 μg DNA.

[8] = test system: skin biopsy explants derived from normal abdominal skin; experiment: Organ culture of normal skin explants, Movat's pentachrome stain; conditions: 10 days, 50 nM aldosterone alone or with 2 μM spironolactone
Protocol: (§3) In order to further test whether aldosterone and spironolactone would penetrate into skin tissue and affect elastogenesis, fragments of normal skin, stretch-marked skin and dermal scars were tested in organ culture system. Skin fragments were cut into multiple 1 mm^2 pieces and placed on top of metal grids immersed in culture medium containing 5% FBS and maintained for 10 days in the presence and absence of and then cultured for 7 days in the presence of 50 nM aldosterone, and 2 μM spironolactone, alone or in combinations, as described in figure legends. The media were changed every second day. All organ cultures were fixed in 1% buffered formalin and their transversal serial histological sections were stained with Movat's pentachrome as previously described in Hinek et al. “Proteolytic digest derived from bovine Ligamentum Nuchae stimulates deposition of new elastin-enriched matrix in cultures and transplants of human dermal fibroblasts” J Dermatol Sci. September 2005; 39(3):155-66 hereby incorporated by reference in it's entirety. Morphometric analysis was performed as described above. In each analyzed group (three explants from each patient) low-power fields (1 mm^2) of 20 serial sections stained with Movat's pentachrome were analyzed and all structures stained black (elastic fibers) were counted.

[9] = test system: skin biopsy explants from abdominal stretch marks; experiment: Organ culture of stretch-marked skin explants, Movat's pentachrome stain; conditions: 10 days, 50 nM aldosterone alone or with 2 μM spironolactone
Protocol: as §3

[10] = FIG. 11, 50 nM aldosterone alone or with 2 μM spironolactone, vs untreated control

CC(=O)S[C@@H]1CC2=CC(=O)CC[C@]2(C)[C@H]2CC[C@@]3(C)[C@@H](CC[C@@]34CCC(=O)O4)[C@H]12 [spironolactone]
elastin deposition in cells treated with increasing concentrations of aldosterone (normal skin fibroblasts [1]; 2 μM spironolactone added to 10 nM, 50 nM, 1 μM aldosterone, 7-day cultures): did not alter elastin deposition

CC(C)(C)c1cc(C=C(C#N)C#N)cc(Br)c1O [AG1024]
effect on aldosterone-enhanced deposition of elastin (immunostaining) (normal skin fibroblasts [1]; 50 nM aldosterone with 1 μg/ml αIGF-IR or 5 μM AG1024): inhibited
effect on IGF-I-enhanced deposition of elastin (immunostaining) (normal skin fibroblasts [1]; 50 ng/ml IGF-I with 1 μg/ml αIGF-IR or 5 μM AG1024): inhibited
mature elastin concentration in the presence of IGF-I or aldosterone ([3H]-valine incorporation) (normal skin fibroblasts [2]; 1 μg/ml αIGF-IR or 5 μM AG1024 with 50 ng/ml IGF-I or 50 nM aldosterone): maintained at or below control levels
elastin deposition in AG1024-treated explants (Movat's pentachrome) ([3]; 5 μM AG1024 alone, with 50 nM aldosterone, or with aldosterone and 2 μM spironolactone): no net increase in elastin deposition

IGF-I: ligand of insulin growth factor receptor I, added at 10-100 ng/ml
deposition of elastin (anti-elastin immunostaining) (normal skin fibroblasts [1]; 7-day cultures): enhances the deposition of elastin
mature, insoluble elastin concentration ([3H]-valine incorporation) (normal skin fibroblasts [2]): improved mature elastin concentrations over untreated control
elastin deposition (anti-elastin immunostaining) ([4]; 10 ng/ml IGF-I vs untreated control): increase in elastin depositions
elastin deposition (anti-elastin immunostaining) ([4]; 100 ng/ml IGF-I vs untreated control): even greater elastin deposition
deposition of mature, insoluble elastin ([3H]-valine incorporation) ([5]; 10 and 100 ng/ml IGF-I vs untreated control): dose dependent increase

C[C@]12CCC(=O)C=C1CC[C@@H]1[C@@H]2[C@@H](O)C[C@]2(C=O)[C@@H](C(=O)CO)CC[C@@H]12 [aldosterone]
concentration of elastin (anti-elastin immunostaining) (normal skin fibroblasts [1]; 7-day cultures, 10 nM, 50 nM, 1 μM aldosterone vs untreated): increased in an aldosterone concentration specific manner
deposition of elastin (anti-elastin immunostaining) (normal skin fibroblasts [1]; 7-day cultures): enhanced deposition of elastin
collagen type I mRNA (relative to GAPDH mRNA) (collagen type I mRNA): net increase of collagen type I mRNA
elastin mRNA (relative to GAPDH mRNA) (elastin mRNA): increases in an aldosterone concentration dependent manner
mature, insoluble elastin concentration ([3H]-valine incorporation) (normal skin fibroblasts [2]): improved mature elastin concentrations over untreated control
elastin stained by anti-elastin antibodies [6]: increase in elastin
concentration of mature, insoluble elastin ([3H]-valine incorporation) [7]: increased
elastin stained by anti-elastin antibodies ([4]; 50 nM aldosterone alone or with 2 μM spironolactone, vs untreated control or spironolactone only): increase in elastin
deposition of insoluble mature elastin ([3H]-valine incorporation) ([5]; 50 nM aldosterone alone or with 2 μM spironolactone): enhanced
elastic fibers / deposition of elastin (Movat's pentachrome) [8]: thicker and longer elastic fibers
elastic fibers / deposition of elastin (Movat's pentachrome) [9]: thicker and longer elastic fibers
deposition of collagen (yellow, Movat's pentachrome) [3, 10]: increases in deposition
deposition of elastin (black, Movat's pentachrome) [3, 10]: increases in deposition
elastic fibers (Movat's pentachrome) ([3]; superficial and deep portion of scar, 10 days, 50 nM aldosterone alone or with 2 μM spironolactone): numerous elastic fibers

Source: patent US9492462B2, “Composition for elastin production” (HUMAN MATRIX SCIENCES, LLC, priority 2007, dated 2016)
